In ChEMBL document CHEMBL1759972, “Phenoxyacetic acids as PPARδ partial agonists: synthesis, optimization, and in vivo efficacy” (Bioorg Med Chem Lett, 2011):
In brackets after ≈: the same amount, converted by molar mass. Activity calls are given as the source filed them. The rule behind the calls is not given here.

What was measured:
Mus musculus [1] = experiment: Antidiabetic activity in po dosed fasting insulin-resistant ob/ob mouse assessed as improvement in glucose sensitivity administered once daily for 15 days measured on day 12 of dosing by OGTT method; type: functional, organism-based
[2] = target: T1, Peroxisome proliferator-activated receptor delta (Homo sapiens, UniProt Q03181); experiment: Induction of human PPARdelta-mediated PDK4 gene expression in human skeletal muscle; type: tissue-based, Muscle tissue
T1 sequence (Q03181 whole entry): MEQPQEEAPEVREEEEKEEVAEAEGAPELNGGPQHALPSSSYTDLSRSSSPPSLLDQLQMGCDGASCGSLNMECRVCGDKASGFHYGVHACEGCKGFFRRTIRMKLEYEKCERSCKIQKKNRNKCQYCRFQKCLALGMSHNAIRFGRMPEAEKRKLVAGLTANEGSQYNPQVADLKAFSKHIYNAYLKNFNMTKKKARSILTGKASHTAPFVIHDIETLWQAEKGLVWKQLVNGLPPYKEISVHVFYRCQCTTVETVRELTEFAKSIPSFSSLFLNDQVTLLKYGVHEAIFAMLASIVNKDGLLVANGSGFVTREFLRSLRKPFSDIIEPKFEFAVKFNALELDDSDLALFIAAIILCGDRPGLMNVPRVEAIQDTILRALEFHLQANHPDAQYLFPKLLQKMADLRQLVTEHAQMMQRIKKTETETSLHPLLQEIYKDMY

Cytochrome P450 2C9 = Cytochrome P450 2C9 (Homo sapiens, UniProt P11712); experiment: Inhibition of CYP2C9; type: ADME
Sequence of Cytochrome P450 2C9 (P11712 whole entry): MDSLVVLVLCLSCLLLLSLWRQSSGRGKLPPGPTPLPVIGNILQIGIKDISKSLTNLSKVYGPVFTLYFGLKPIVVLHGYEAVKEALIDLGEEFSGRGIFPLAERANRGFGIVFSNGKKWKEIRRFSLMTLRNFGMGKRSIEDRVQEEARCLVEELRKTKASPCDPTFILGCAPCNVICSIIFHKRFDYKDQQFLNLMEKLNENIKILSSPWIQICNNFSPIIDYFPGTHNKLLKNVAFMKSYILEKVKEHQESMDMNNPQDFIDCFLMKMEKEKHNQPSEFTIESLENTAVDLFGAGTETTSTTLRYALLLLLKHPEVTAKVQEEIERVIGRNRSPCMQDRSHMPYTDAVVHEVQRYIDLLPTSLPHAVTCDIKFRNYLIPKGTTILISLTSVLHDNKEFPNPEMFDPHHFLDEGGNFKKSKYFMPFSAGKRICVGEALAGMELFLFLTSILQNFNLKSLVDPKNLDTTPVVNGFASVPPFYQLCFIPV

[3] = AUC (0 to infinity) in CD mouse at 10 mg/kg, po; type: ADME, organism-based; parameters: time infinity, dose 10 mg/kg, route oral; conditions: plasma
Cytochrome P450 2C19 = Cytochrome P450 2C19 (Homo sapiens, UniProt P33261); experiment: Inhibition of CYP2C19; type: ADME
Sequence of Cytochrome P450 2C19 (P33261 whole entry): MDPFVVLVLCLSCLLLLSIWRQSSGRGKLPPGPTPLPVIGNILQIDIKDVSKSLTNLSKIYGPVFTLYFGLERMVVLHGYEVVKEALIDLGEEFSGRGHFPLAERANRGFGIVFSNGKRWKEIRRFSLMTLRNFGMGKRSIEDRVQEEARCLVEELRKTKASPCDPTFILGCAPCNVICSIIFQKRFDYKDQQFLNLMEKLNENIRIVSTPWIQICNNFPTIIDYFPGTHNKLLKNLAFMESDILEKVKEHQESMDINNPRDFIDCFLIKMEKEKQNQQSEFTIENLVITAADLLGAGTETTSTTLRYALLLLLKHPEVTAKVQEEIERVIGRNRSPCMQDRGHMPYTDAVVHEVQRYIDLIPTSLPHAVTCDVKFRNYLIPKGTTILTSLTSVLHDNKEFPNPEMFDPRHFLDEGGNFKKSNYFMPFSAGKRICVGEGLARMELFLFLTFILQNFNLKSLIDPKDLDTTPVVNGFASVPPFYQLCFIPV

[4] = Aqueous solubility of the compound; type: physicochemical
Cytochrome P450 3A4 = Cytochrome P450 3A4 (Homo sapiens, UniProt P08684); experiment: Inhibition of CYP3A4; type: ADME
Sequence of Cytochrome P450 3A4 (P08684 whole entry): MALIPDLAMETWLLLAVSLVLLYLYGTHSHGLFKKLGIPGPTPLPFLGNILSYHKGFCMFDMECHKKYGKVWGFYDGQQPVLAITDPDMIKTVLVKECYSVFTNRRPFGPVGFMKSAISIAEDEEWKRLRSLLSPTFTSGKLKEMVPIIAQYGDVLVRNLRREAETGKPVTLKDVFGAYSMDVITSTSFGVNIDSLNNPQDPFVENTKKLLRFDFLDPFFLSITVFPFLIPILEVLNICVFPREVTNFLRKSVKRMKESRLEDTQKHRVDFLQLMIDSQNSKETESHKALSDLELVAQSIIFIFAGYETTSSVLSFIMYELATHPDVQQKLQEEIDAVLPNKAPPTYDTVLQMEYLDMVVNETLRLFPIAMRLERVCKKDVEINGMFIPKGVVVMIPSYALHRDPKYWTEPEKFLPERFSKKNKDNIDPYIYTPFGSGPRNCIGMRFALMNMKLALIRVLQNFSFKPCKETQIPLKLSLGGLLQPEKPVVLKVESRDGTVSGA

Mus musculus [5] = experiment: Antidiabetic activity in fasting insulin-resistant ob/ob mouse assessed as improvement in glucose sensitivity at 30 mg/kg, po administered once daily for 15 days measured on day 12 of dosing by OGTT method; type: functional, organism-based; parameters: dose 30 mg/kg
[6] = target: T1, Peroxisome proliferator-activated receptor delta
Description: Displacement of [3H]GW 2433 from human PPARdelta by scintillation proximity assay

[7] = target: T1, Peroxisome proliferator-activated receptor delta; remark: listed apart in the source
Description: Partial agonist activity at human PPARdelta expressed in african green monkey CV1 cells transfected with Gal4 assessed as beta-galactosidase activity by transactivation assay

[8] = target: T2, Peroxisome proliferator-activated receptor gamma (Homo sapiens, UniProt P37231)
T2 sequence (P37231 whole entry): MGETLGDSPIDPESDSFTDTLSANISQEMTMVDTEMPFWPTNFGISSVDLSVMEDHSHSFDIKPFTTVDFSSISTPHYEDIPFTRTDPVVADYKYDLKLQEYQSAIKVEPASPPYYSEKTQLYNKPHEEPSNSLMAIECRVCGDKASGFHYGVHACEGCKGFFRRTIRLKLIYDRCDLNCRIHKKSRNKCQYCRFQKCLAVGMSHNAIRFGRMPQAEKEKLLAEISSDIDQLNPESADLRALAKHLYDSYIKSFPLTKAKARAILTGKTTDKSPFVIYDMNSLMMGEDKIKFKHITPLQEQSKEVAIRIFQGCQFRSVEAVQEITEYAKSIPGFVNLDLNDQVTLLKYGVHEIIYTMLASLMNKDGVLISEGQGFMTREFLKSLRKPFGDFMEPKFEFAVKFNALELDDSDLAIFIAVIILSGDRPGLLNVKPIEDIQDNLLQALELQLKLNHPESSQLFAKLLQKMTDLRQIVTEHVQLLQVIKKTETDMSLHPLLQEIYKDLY
Description: Displacement of [3H]GW 2433 from human PPARgamma by scintillation proximity assay

[9] = Permeability across artificial membrane; type: ADME; conditions: PAMPA; read-out: permeability
Cytochrome P450 2D6 = Cytochrome P450 2D6 (Homo sapiens, UniProt P10635); experiment: Inhibition of CYP2D6; type: ADME
Sequence of Cytochrome P450 2D6 (P10635 whole entry): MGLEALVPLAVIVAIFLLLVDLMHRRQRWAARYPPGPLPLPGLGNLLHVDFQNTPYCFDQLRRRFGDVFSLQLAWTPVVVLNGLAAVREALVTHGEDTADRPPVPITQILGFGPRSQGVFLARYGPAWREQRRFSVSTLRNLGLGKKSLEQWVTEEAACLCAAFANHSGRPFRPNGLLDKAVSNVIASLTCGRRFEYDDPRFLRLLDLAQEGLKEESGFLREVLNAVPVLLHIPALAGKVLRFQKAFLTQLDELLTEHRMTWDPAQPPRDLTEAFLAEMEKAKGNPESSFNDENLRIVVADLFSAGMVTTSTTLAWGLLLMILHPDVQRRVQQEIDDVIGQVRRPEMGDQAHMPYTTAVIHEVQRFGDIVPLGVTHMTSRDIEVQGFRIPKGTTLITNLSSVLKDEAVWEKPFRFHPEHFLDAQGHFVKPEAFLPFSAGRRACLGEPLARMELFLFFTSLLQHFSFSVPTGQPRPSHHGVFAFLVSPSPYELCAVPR

Liver microsomes = experiment: Intrinsic clearance in human liver microsomes; type: ADME, Microsome
[10] = Half life in CD mouse at 10 mg/kg, po; type: ADME, organism-based; parameters: dose 10 mg/kg, route oral; conditions: in vivo
[11] = target: T3, Peroxisome proliferator-activated receptor alpha (Homo sapiens, UniProt Q07869); experiment: Displacement of [3H]GW 2433 from human PPARalpha by scintillation proximity assay
T3 sequence (Q07869 whole entry): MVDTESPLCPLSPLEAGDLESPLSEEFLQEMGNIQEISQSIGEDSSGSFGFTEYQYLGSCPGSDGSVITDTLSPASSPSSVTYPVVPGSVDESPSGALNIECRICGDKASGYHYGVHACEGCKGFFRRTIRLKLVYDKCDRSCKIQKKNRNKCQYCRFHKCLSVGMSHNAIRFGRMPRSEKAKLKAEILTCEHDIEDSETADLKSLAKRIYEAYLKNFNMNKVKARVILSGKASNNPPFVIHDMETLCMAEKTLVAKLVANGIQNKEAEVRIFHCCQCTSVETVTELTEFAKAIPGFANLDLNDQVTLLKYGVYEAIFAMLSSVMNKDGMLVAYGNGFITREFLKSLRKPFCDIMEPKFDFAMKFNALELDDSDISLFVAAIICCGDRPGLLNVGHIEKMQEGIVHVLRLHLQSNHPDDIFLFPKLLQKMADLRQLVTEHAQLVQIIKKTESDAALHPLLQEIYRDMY

Mus musculus [12] = experiment: Antidiabetic activity in fasting insulin-resistant ob/ob mouse assessed as decrease in body weight gain at 100 mg/kg, po administered once daily for 15 days; type: functional, organism-based; parameters: dose 100 mg/kg
[13] = target: T1, Peroxisome proliferator-activated receptor delta; experiment: Induction of human PPARdelta-mediated CPT1a gene expression in human skeletal muscle; type: tissue-based, Muscle tissue
Cytochrome P450 1A2 = target: T4, Cytochrome P450 1A2 (Homo sapiens, UniProt P05177); experiment: Inhibition of CYP1A2; type: ADME
T4 sequence (P05177 whole entry): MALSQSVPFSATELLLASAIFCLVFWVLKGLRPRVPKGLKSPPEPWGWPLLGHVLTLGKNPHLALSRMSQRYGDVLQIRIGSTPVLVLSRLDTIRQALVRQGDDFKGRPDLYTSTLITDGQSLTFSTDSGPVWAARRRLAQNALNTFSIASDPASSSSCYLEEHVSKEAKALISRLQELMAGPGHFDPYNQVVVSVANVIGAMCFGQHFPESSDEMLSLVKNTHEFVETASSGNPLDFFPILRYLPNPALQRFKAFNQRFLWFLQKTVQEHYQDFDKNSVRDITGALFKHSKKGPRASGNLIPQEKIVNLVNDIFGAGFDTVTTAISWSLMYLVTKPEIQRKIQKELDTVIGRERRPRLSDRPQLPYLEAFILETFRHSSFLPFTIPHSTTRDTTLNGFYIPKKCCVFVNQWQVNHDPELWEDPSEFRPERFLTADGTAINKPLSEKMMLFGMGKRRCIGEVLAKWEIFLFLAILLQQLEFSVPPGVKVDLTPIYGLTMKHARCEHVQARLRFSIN

Mus musculus [14] = experiment: Dose normalized AUC (0 to 24 hrs) in CD mouse at 10 mg/kg, po; type: ADME, organism-based; parameters: time < 24 hr, dose 10 mg/kg, route oral; conditions: in vivo

Row | Structure (SMILES) | Activity (Mus musculus [1]) | EC50 [2] | IC50 (Cytochrome P450 2C9) | AUC(0-inf) [3] | IC50 (Cytochrome P450 2C19) | solubility [4] | IC50 (Cytochrome P450 3A4) | Activity (Mus musculus [5]) | IC50 [6] | EC50 [7] | IC50 [8] | Papp [9] | IC50 (Cytochrome P450 2D6) | CL (Liver microsomes) | half-life [10] | IC50 [11] | Activity (Mus musculus [12]) | EC50 [13] | IC50 (Cytochrome P450 1A2) | AUC (Mus musculus [14])
1 | CCCCN(c1cccc(-c2ccc(OC(F)(F)F)cc2)c1Cl)S(=O)(=O)c1ccc(OC(C)C(=O)O)c(C)c1C (configuration not stated) | Dose-dependent effect | 25.1 nM | 794 nM | 5870 ng·h/mL | > 3160 nM | 140 µM (≈ 84 µg/mL) | > 3160 nM | Active | 15.8 nM | 2.51 nM | 6310 nM | 25 ×10⁻⁶ cm/s | > 3160 nM | 28 µL/min/mg | 5.4 h | 10000 nM | Active | 10 nM | > 3160 nM | –
2 | CCCCN(c1cccc(-c2ccc(C(F)(F)F)cc2)c1Cl)S(=O)(=O)c1ccc(OC(C)C(=O)O)c(C)c1C (configuration not stated) | Dose-dependent effect | 10 nM | 794 nM | 2480 ng·h/mL | > 3160 nM | 140 µM (≈ 81.8 µg/mL) | > 3160 nM | Active | 6.31 nM | 2.51 nM | 6310 nM | 25 ×10⁻⁶ cm/s | > 3160 nM | 18 µL/min/mg | 4.3 h | 7940 nM | Active | 3.98 nM | > 3160 nM | –
3 | CCCCN(c1cccc(-c2ccc(Cl)cc2)c1C)S(=O)(=O)c1ccc(OC(C)C(=O)O)c(C)c1C (configuration not stated) | – | – | – | – | – | – | – | – | 50.1 nM | 25.1 nM | – | – | – | – | – | 20000 nM | – | – | – | 575 ng·h/mL/mg/kg
